Data taken from the supplement of paper PMC10307832.

Key:
Test in all cases: relative viability (nuclei count vs DMSO), 5 days (fraction); higher = more cells survive
[1] = compound: C[C@H]([C@@H](C(=O)N)NC(=O)[C@@H]1CSSC[C@@H](C(=O)N[C@H](C(=O)N[C@@H](C(=O)N[C@H](C(=O)N1)CCCCN)CC2=CNC3=CC=CC=C32)CC4=CC=C(C=C4)O)NC(=O)[C@@H](CC5=CC=CC=C5)N)O [CAP-232] + CS(=O)(=O)N1CCN(Cc2cc3nc(-c4cccc5[nH]ncc45)nc(N4CCOCC4)c3s2)CC1 [Pictilisib] (partner 1 µM)
In short: (§1)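 Lung cancer cell lines in 1536-well plates got either a single drug or a fixed anchor-drug dose together with five library-drug doses (not always all listed) in √10 steps, by pin tool, on the day after seeding. Nuclei were counted after 5 days, and relative viability is the treated-to-vehicle ratio of nuclei counts. Values are medians of duplicate plates.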

[2] = compound: C[C@H]([C@@H](C(=O)N)NC(=O)[C@@H]1CSSC[C@@H](C(=O)N[C@H](C(=O)N[C@@H](C(=O)N[C@H](C(=O)N1)CCCCN)CC2=CNC3=CC=CC=C32)CC4=CC=C(C=C4)O)NC(=O)[C@@H](CC5=CC=CC=C5)N)O [CAP-232] + Cc1nc(NC(=O)N2CCC[C@H]2C(N)=O)sc1-c1ccnc(C(C)(C)C(F)(F)F)c1 [Alpelisib] (partner 2 µM)
In short: as §1

[3] = compound: C[C@H]([C@@H](C(=O)N)NC(=O)[C@@H]1CSSC[C@@H](C(=O)N[C@H](C(=O)N[C@@H](C(=O)N[C@H](C(=O)N1)CCCCN)CC2=CNC3=CC=CC=C32)CC4=CC=C(C=C4)O)NC(=O)[C@@H](CC5=CC=CC=C5)N)O [CAP-232] + Cc1cc(Nc2cc(N3CCN(C)CC3)nc(Sc3ccc(NC(=O)C4CC4)cc3)n2)n[nH]1 [Tozasertib] (partner 0.1 µM)
In short: as §1

[4] = compound: C[C@H]([C@@H](C(=O)N)NC(=O)[C@@H]1CSSC[C@@H](C(=O)N[C@H](C(=O)N[C@@H](C(=O)N[C@H](C(=O)N1)CCCCN)CC2=CNC3=CC=CC=C32)CC4=CC=C(C=C4)O)NC(=O)[C@@H](CC5=CC=CC=C5)N)O [CAP-232] + O=C(CCCCCCC(=O)Nc1ccccc1)NO [Vorinostat] (partner 1 µM)
In short: as §1

[5] = compound: C[C@H]([C@@H](C(=O)N)NC(=O)[C@@H]1CSSC[C@@H](C(=O)N[C@H](C(=O)N[C@@H](C(=O)N[C@H](C(=O)N1)CCCCN)CC2=CNC3=CC=CC=C32)CC4=CC=C(C=C4)O)NC(=O)[C@@H](CC5=CC=CC=C5)N)O [CAP-232] + N=C(N)NC(=N)NCCc1ccccc1 [Phenformin] (partner 250 µM)
In short: as §1

| Cell Line | relative viability ([1]; first compound 0.4 µM) | relative viability ([1]; first compound 1.265 µM) | relative viability ([1]; first compound 4 µM) | relative viability ([1]; first compound 12.65 µM) | relative viability ([2]; first compound 0.4 µM) | relative viability ([2]; first compound 1.265 µM) | relative viability ([2]; first compound 4 µM) | relative viability ([2]; first compound 12.65 µM) | relative viability ([3]; first compound 0.4 µM) | relative viability ([3]; first compound 1.265 µM) | relative viability ([3]; first compound 4 µM) | relative viability ([3]; first compound 12.65 µM) | relative viability ([4]; first compound 0.4 µM) | relative viability ([4]; first compound 1.265 µM) | relative viability ([4]; first compound 4 µM) | relative viability ([4]; first compound 12.65 µM) | relative viability ([5]; first compound 0.4 µM) | relative viability ([5]; first compound 1.265 µM) | relative viability ([5]; first compound 4 µM) | relative viability ([5]; first compound 12.65 µM) |
| --- | --- | --- | --- | --- | --- | --- | --- | --- | --- | --- | --- | --- | --- | --- | --- | --- | --- | --- | --- | --- |
| NCI-H2023 | 0.253 | 0.231 | 0.271 | 0.133 | 0.711 | 0.592 | 0.637 | 0.237 | 0.348 | 0.332 | 0.379 | 0.139 | 0.599 | 0.426 | 0.645 | 0.251 | 0.448 | 0.388 | 0.417 | 0.188 |
| NCI-H2085 | 0.475 | 0.421 | 0.355 | 0.538 | 1.02 | 0.886 | 0.902 | 1.16 | 0.94 | 0.816 | 0.827 | 0.844 | 0.852 | 0.819 | 0.779 | 0.832 | 0.713 | 0.703 | 0.741 | 0.688 |
| NCI-H2087 | 0.791 | 0.983 | 0.929 | 0.484 | 0.983 | 1.17 | 0.929 | 0.841 | 0.193 | 0.212 | 0.221 | 0.311 | 0.985 | 0.728 | 0.886 | 0.439 | 0.435 | 0.419 | 0.436 | 0.321 |
| NCI-H2126 | 0.501 | 0.468 | 0.482 | 0.525 | 0.751 | 0.742 | 0.8 | 0.73 | 0.801 | 0.799 | 0.885 | 0.822 | 0.827 | 0.795 | 0.755 | 0.857 | 0.525 | 0.5 | 0.51 | 0.56 |
| NCI-H2170 | 0.257 | 0.275 | 0.259 | 0.286 | 0.81 | 0.865 | 0.831 | 0.76 | 0.852 | 0.667 | 0.615 | 0.73 | 0.823 | 0.835 | 0.886 | 0.794 | 0.409 | 0.422 | 0.438 | 0.42 |
| NCI-H2228 | 0.381 | 0.768 | 0.369 | 0.269 | 0.816 | 0.572 | 0.777 | 0.848 | 0.257 | 0.28 | 0.195 | 0.263 | 0.657 | 0.389 | 0.597 | 0.709 | 0.38 | 0.253 | 0.409 | 0.221 |
| NCI-H2347 | 0.412 | 0.764 | 0.894 | 0.508 | 0.966 | 0.993 | 0.986 | 0.995 | 0.564 | 0.545 | 0.517 | 0.521 | 0.63 | 0.613 | 0.585 | 0.487 | 0.281 | 0.305 | 0.427 | 0.296 |
| NCI-H2405 | 0.372 | 0.441 | 0.565 | 0.322 | 0.623 | 0.924 | 0.683 | 0.396 | 0.728 | 0.751 | 0.761 | 0.683 | 1.22 | 1.09 | 1.01 | 0.79 | 0.377 | 0.356 | 0.37 | 0.317 |
| NCI-H3122 | 0.399 | 0.573 | 0.568 | 0.566 | 0.735 | 0.76 | 0.838 | 0.84 | 0.344 | 0.36 | 0.292 | 0.252 | 1.07 | 1.05 | 0.883 | 0.945 | 0.404 | 0.388 | 0.395 | 0.335 |
| PC-3 [JPC-3] | 0.798 | 0.741 | 0.84 | 0.763 | 1.1 | 1.08 | 1.03 | 1.08 | 1.05 | 0.949 | 0.924 | 0.91 | 1.3 | 0.741 | 0.864 | 0.741 | 0.494 | 0.461 | 0.459 | 0.453 |
| PC-14 | 0.771 | 0.661 | 0.734 | 0.656 | 1.06 | 0.911 | 1.14 | 0.926 | 0.644 | 0.575 | 0.542 | 0.565 | 0.793 | 0.701 | 0.725 | 0.522 | 0.577 | 0.56 | 0.659 | 0.386 |
| RERF-LC-KJ | 0.563 | 0.623 | 0.538 | 0.42 | 0.951 | 0.693 | 0.833 | 0.816 | 0.562 | 0.444 | 0.433 | 0.351 | 0.817 | 0.763 | 0.706 | 0.485 | 0.493 | 0.4 | 0.388 | 0.315 |
| SK-LU-1 | 0.605 | 0.547 | 0.651 | 0.462 | 1 | 1.11 | 1.07 | 0.96 | 0.309 | 0.314 | 0.289 | 0.203 | 0.744 | 0.792 | 0.761 | 0.591 | 0.503 | 0.553 | 0.67 | 0.482 |
| SK-MES-1 | 0.335 | 0.379 | 0.32 | 0.323 | 0.997 | 0.944 | 1.06 | 0.938 | 0.903 | 0.893 | 0.905 | 0.774 | 1.3 | 1.13 | 1.02 | 0.489 | 0.684 | 0.663 | 0.693 | 0.521 |
| SW 1573 | 0.437 | 0.587 | 0.54 | 0.395 | 0.744 | 0.861 | 0.8 | 0.672 | 0.185 | 0.207 | 0.189 | 0.126 | 0.7 | 0.867 | 0.926 | 0.309 | 0.337 | 0.413 | 0.421 | 0.163 |
| UMC-11 | 0.775 | 0.796 | 1 | 0.876 | 1.06 | 1.04 | 1.16 | 0.777 | 0.202 | 0.191 | 0.214 | 0.17 | 0.357 | 0.413 | 0.344 | 0.272 | 0.309 | 0.28 | 0.332 | 0.295 |
